Assay results taken from patent US11035856B1 (priority 2007, dated 2021).
Several values for one entry are separate records, joined by “and”; a condition that tells them apart may be missing. Equal values may be shown once. Read-outs that look alike come from different tables or passages of the source.

Tests used:
[1] = test system: cyanobacteria; type: cell-based
[2] = test system: cyanobacteria; type: cell-based; remark: listed apart in the source

**Q.** With Triton X-100 [reference compound] as the compound, how does the “Microcystin concentration determined by the assay” value (shortened to “Microcystin concentration”) [1] read?
**A.** 2.92 ppb and 2.52 ppb and 2.55 ppb

**Q.** How did the “Microcystin concentration” value ([1]; 0.1%) turn out when CCCCCCCCCCCCOS(=O)(=O)[O-].[Na+] [SDS, reference compound] was run?
**A.** 14.13 ppb

**Q.** How did the “Microcystin concentration” value ([1]; 100 ppm) turn out when O=S(=O)([O-])[O-].O=S(=O)([O-])[O-].O=S(=O)([O-])[O-].[Al+3].[Al+3] [Al2(SO4)3, reference compound] was run?
**A.** 0.45 ppb

**Q.** With O=[N+]([O-])[O-].[Ag+] [Silver nitrate] as the compound, how does the “effectiveness as a lytic agent” value [2] read?
**A.** as effective as silver sulfate as a lytic agent

**Q.** What does the source list for O=S(=O)([O-])[O-].[Cu+2] [CuSO4, copper sulfate]?
**A.** Microcystin concentration determined by the assay ([1]; 10 ppm): 2.40 ppb; Microcystin concentration determined by the assay ([1]; 100 ppm): 2.31 ppb; Microcystin concentration determined by the assay ([1]; 1000 ppm): 7.25 ppb and 5.17 ppb; Microcystin concentration determined by the assay ([1]; 1000 ppm for 10 min): 4.28 ppb; Microcystin concentration determined by the assay ([1]; 1000 ppm for 20 min): 4.96 ppb; Microcystin concentration determined by the assay ([1]; 1000 ppm for 30 min): 5.64 ppb; Microcystin concentration determined by the assay ([1]; 5000 ppm): 4.79 ppb
